Data taken from patent US12428406B2 (PMV Pharmaceuticals, Inc., priority 2019, dated 2025).

Target: T1, p53 Y220C (Homo sapiens, UniProt P04637, Y220C)
T1 construct: The recombinant protein was a truncation mutant containing only amino acids 94-312 of p53; made in house; host or cells: E. coli
Experiment: In vitro DNA binding activity assay (HTRF / TR-FRET): stabilization of p53 Y220C and increase of its DNA binding activity
Type: biochemical
Details: recombinant His-tagged p53 Y220C DNA binding domain (aa 94-312), biotin-labeled consensus DNA, incubated at 27° C. or 29° C. for 60 min
Procedure, shortened: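 His-tagged p53 Y220C, E. coli-expressed, binding biotin-labeled consensus DNA measured by HTRF (anti-His-APC, streptavidin-europium). Compounds from 4.5 mM DMSO stocks, 3-fold serial dilutions; incubations at room temperature 15 min, then 20 min. SC150 = concentration raising DNA binding by 50%.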

T1 sequence (P04637 94-312, change not shown): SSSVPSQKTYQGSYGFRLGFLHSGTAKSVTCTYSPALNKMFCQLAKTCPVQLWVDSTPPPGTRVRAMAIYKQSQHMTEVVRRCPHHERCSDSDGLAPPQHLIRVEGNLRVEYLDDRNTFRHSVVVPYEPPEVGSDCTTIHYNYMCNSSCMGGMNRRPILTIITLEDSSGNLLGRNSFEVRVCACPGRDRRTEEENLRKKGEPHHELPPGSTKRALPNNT

SMILES	SC150 (concentration of the compound required to increase the DNA binding activity by 50%)
C=C(C#N)Cn1c(C#CCNc2ccc(S(C)(=O)=O)cc2OC)cc2c(N[C@H]3CC[C@H](N(C)C)CC3)cccc21 [Compound 78A, 2-[(2-{3-[(4-methanesulfonyl-2-methoxyphenyl)amino]prop-1-yn-1-yl}-4-{[(1R,4R)-4-(dimethylamino)cyclohexyl]amino}-1H-indol-1-yl)methyl]prop-2-enenitrile]	+++ (+++ = 0.1 μM ≤ SC150 < 0.2 μM)
CN(C)[C@H]1CC[C@@H](Nc2cccc3c2cc(C#CCNc2ccc(S(C)(=O)=O)cc2O)n3CC(F)(F)F)CC1 [Compound 79A, 5-methanesulfonyl-2-{[3-(4-{[(1R,4R)-4-(dimethylamino)cyclohexyl]amino}-1-(2,2,2-trifluoroethyl)-1H-indol-2-yl)prop-2-yn-1-yl]amino}phenol]	+ (+ = 0 μM ≤ SC150 < 0.05 μM)
CN(C)[C@H]1CC[C@H](Nc2cccc3c2cc(C#CCNc2ccc(S(C)(=O)=O)cc2OCC(F)(F)F)n3CC(F)(F)F)CC1 [Compound 92A, (1R,4R)-N^4-[2-(3-{[4-methanesulfonyl-2-(2,2,2-trifluoroethoxy)phenyl]amino}prop-1-yn-1-yl)-1-(2,2,2-trifluoro-ethyl)-1H-indol-4-yl]-N^1,N^1-dimethylcyclo-hexane-1,4-diamine]	+ (+ = 0 μM ≤ SC150 < 0.05 μM)
CN(C)[C@H]1CC[C@@H](Nc2cccc3c2cc(C#CCNc2ccc(S(C)(=O)=O)cc2OCC(F)(F)F)n3CC(F)(F)F)CC1 [Compound 93A, (1S,4S)-N^4-[2-(3-{[4-methanesulfonyl-2-(2,2,2-trifluoroethoxy)phenyl]amino}prop-1-yn-1-yl)-1-(2,2,2-trifluoro-ethyl)-1H-indol-4-yl]-N^1,N^1-dimethylcyclo-hexane-1,4-diamine]	+ (+ = 0 μM ≤ SC150 < 0.05 μM)
CN(C)[C@H]1CC[C@@H](Nc2cccc3c2cc(C#CCOc2ccc(S(C)(=O)=O)cc2N)n3CC(F)(F)F)CC1 [Compound 94A, (1S,4S)-N4-{2-[3-(2-amino-4-methane-sulfonylphenoxy)prop-1-yn-1-yl]-1-(2,2,2-trifluoroethyl)-1H-indol-4-yl}-N^1,N^1-dimethylcyclohexane-1,4-diamine]	+++ (+++ = 0.1 μM ≤ SC150 < 0.2 μM)
CNC(=O)c1ccc(NCC#Cc2cc3c(N[C@H]4CC[C@@H](N(C)C)CC4)cccc3n2CC(F)(F)F)c(O)c1 [Compound 97A, 3-hydroxy-N-methyl-4-{[3-(4-{[(1S,4S)-4-(dimethylamino)cyclo-hexyl]amino}-1-(2,2,2-trifluoroethyl)-1H-indol-2-yl)prop-2-yn-1-yl]amino}benzamide]	+ (+ = 0 μM ≤ SC150 < 0.05 μM)
CNC(=O)c1ccc(NCC#Cc2cc3c(N[C@H]4CC[C@H](N(C)C)CC4)cccc3n2CC(F)(F)F)c(O)c1 [Compound 98A, 3-hydroxy-N-methyl-4-{[3-(4-{[(1R,4R)-4-(dimethylamino)cyclo-hexyl]amino}-1-(2,2,2-trifluoroethyl)-1H-indol-2-yl)prop-2-yn-1-yl]amino}benzamide]	+ (+ = 0 μM ≤ SC150 < 0.05 μM)
CNC(=O)c1ccc(NCC#Cc2cc3c(N[C@H]4CC[C@@H](N(C)C)CC4)cccc3n2CC(F)(F)F)c(OCCOC)c1 [Compound 99A, 3-(2-methoxyethoxy)-N-methyl-4-{[3-(4-{[(1S,4S)-4-(dimethyl-amino)cyclohexyl]amino}-1-(2,2,2-trifluoroethyl)-1H-indol-2-yl)prop-2-yn-1-yl]amino}benzamide]	+ (+ = 0 μM ≤ SC150 < 0.05 μM)
CN(C)[C@H]1CC[C@H](Nc2cccc3c2cc(C#CCOc2ccc(S(C)(=O)=O)cc2N)n3CC(F)(F)F)CC1 [Compound 100A, (1R,4R)-N^4-{2-[3-(2-amino-4-methane-sulfonylphenoxy)prop-1-yn-1-yl]-1-(2,2,2-trifluoroethyl)-1H-indol-4-yl}-N^1,N^1-dimethylcyclohexane-1,4-diamine]	+ (+ = 0 μM ≤ SC150 < 0.05 μM)

The remaining lines, values ahead:

SC150 (concentration of the compound required to increase the DNA binding activity by 50%)	SMILES
+ (+ = 0 μM ≤ SC150 < 0.05 μM)	CN(C)[C@H]1CC[C@H](Nc2cccc3c2cc(C#CCNc2ccc(S(C)(=O)=O)cc2O)n3CC(F)(F)F)CC1 [Compound 80A, 5-methanesulfonyl-2-{[3-(4-{[(1S,4S)-4-(dimethylamino)cyclohexyl]amino}-1-(2,2,2-trifluoroethyl)-1H-indol-2-yl)prop-2-yn-1-yl]amino}phenol]
+ (+ = 0 μM ≤ SC150 < 0.05 μM)	CN(C)[C@H]1CC[C@H](Nc2cccc3c2cc(C#CCNc2ccc(S(C)(=O)=O)cc2OCC#N)n3CC(F)(F)F)CC1 [Compound 81A, 2-(5-methanesulfonyl-2-{[3-(4-{[(1R,4R)-4-(dimethylamino)cyclohexyl]amino}-1-(2,2,2-trifluoro-ethyl)-1H-indol-2-yl)prop-2-yn-1-yl]amino}phenoxy)acetonitrile]
+ (+ = 0 μM ≤ SC150 < 0.05 μM)	CN(C)[C@H]1CC[C@@H](Nc2cccc3c2cc(C#CCNc2ccc(S(C)(=O)=O)cc2OCC#N)n3CC(F)(F)F)CC1 [Compound 82A, 2-(5-methanesulfonyl-2-{[3-(4-{[(1S,4S)-4-(dimethylamino)cyclohexyl]amino}-1-(2,2,2-trifluoro-ethyl)-1H-indol-2-yl)prop-2-yn-1-yl]amino}phenoxy)acetonitrile]
+ (+ = 0 μM ≤ SC150 < 0.05 μM)	COc1cc(S(=O)(=O)NC(C)=O)ccc1NCC#Cc1cc2c(N[C@H]3CC[C@H](N(C)C)CC3)cccc2n1CC(F)(F)F [Compound 83A, N-(3-methoxy-4-{[3-(4-{[(1R,4R)-4-(dimethylamino)cyclohexyl]amino}-1-(2,2,2-trifluoroethyl)-1H-indol-2-yl)prop-2-yn-1-yl]amino}benzenesulfonyl)acetamide]
++ (++ = 0.05 μM ≤ SC150 < 0.1 μM)	COc1cc(S(=O)(=O)NC(C)=O)ccc1NCC#Cc1cc2c(N[C@H]3CC[C@@H](N(C)C)CC3)cccc2n1CC(F)(F)F [Compound 84A, N-(3-methoxy-4-{[3-(4-{[(1S,4S)-4-(dimethylamino)cyclohexyl]amino}-1-(2,2,2-trifluoroethyl)-1H-indol-2-yl)prop-2-yn-1-yl]amino}benzenesulfonyl)acetamide]
+ (+ = 0 μM ≤ SC150 < 0.05 μM)	CCC(=O)NS(=O)(=O)c1ccc(NCC#Cc2cc3c(N[C@H]4CC[C@H](N(C)C)CC4)cccc3n2CC(F)(F)F)c(OC)c1 [Compound 85A, N-(3-methoxy-4-{[3-(4-{[(1R,4R)-4-(dimethylamino)cyclohexyl]amino}-1-(2,2,2-trifluoroethyl)-1H-indol-2-yl)prop-2-yn-1-yl]amino}benzenesulfonyl)propanamide]
+ (+ = 0 μM ≤ SC150 < 0.05 μM)	CCC(=O)NS(=O)(=O)c1ccc(NCC#Cc2cc3c(N[C@H]4CC[C@@H](N(C)C)CC4)cccc3n2CC(F)(F)F)c(OC)c1 [Compound 86A]
+ (+ = 0 μM ≤ SC150 < 0.05 μM)	CN(C)[C@H]1CC[C@H](Nc2cccc3c2cc(C#CCNc2ccc(S(C)(=O)=O)cc2OCCO)n3CC(F)(F)F)CC1 [Compound 87A, 2-(5-methanesulfonyl-2-{[3-(4-{[(1R,4R)-4-(dimethylamino)cyclohexyl]amino}-1-(2,2,2-trifluoroethyl)-1H-indol-2-yl)prop-2-yn-1-yl]amino}phenoxy)ethan-1-ol]
+ (+ = 0 μM ≤ SC150 < 0.05 μM)	CN(C)[C@H]1CC[C@@H](Nc2cccc3c2cc(C#CCNc2ccc(S(C)(=O)=O)cc2OCCO)n3CC(F)(F)F)CC1 [Compound 88A, 2-(5-methanesulfonyl-2-{[3-(4-{[(1S,4S)-4-(dimethylamino)cyclohexyl]amino}-1-(2,2,2-trifluoro-ethyl)-1H-indol-2-yl)prop-2-yn-1-yl]amino}phenoxy)ethan-1-ol]
+ (+ = 0 μM ≤ SC150 < 0.05 μM)	COCCOc1cc(S(C)(=O)=O)ccc1NCC#Cc1cc2c(N[C@H]3CC[C@H](N(C)C)CC3)cccc2n1CC(F)(F)F [Compound 89A, (1R,4R)-N^4-[2-(3-{[4-methanesulfonyl-2-(2-methoxyethoxy)phenyl]amino}prop-1-yn-1-yl)-1-(2,2,2-trifluoro-ethyl)-1H-indol-4-yl]-N^1,N^1-dimethylcyclo-hexane-1,4-diamine]
+ (+ = 0 μM ≤ SC150 < 0.05 μM)	CCOc1cc(S(C)(=O)=O)ccc1NCC#Cc1cc2c(N[C@H]3CC[C@H](N(C)C)CC3)cccc2n1CC(F)(F)F [Compound 95A, (1R,4R)—N^4-(2-{3-[(2-ethoxy-4-methanesulfonylphenyl)amino]prop-1-yn-1-yl}-1-(2,2,2-trifluoroethyl)-1H-indol-4-yl)-N^1,N^1-dimethylcyclohexane-1,4-diamine]
++ (++ = 0.05 μM ≤ SC150 < 0.1 μM)	CCOc1cc(S(C)(=O)=O)ccc1NCC#Cc1cc2c(N[C@H]3CC[C@@H](N(C)C)CC3)cccc2n1CC(F)(F)F [Compound 96A, (1S,4S)-N^4-(2-{3-[(2-ethoxy-4-methane-sulfonylphenyl)amino]prop-1-yn-1-yl}-1-(2,2,2-trifluoroethyl)-1H-indol-4-yl)-N^1,N^1-dimethylcyclohexane-1,4-diamine]
+ (+ = 0 μM ≤ SC150 < 0.05 μM)	CCNC(=O)c1ccc(NCC#Cc2cc3c(N[C@H]4CC[C@H](N(C)C)CC4)cccc3n2CC(F)(F)F)c(OC)c1 [Compound 101A, N-ethyl-3-methoxy-4-{[3-(4-{[(1R,4R)-4-(dimethylamino)cyclo-hexyl]amino}-1-(2,2,2-trifluoroethyl)-1H-indol-2-yl)prop-2-yn-1-yl]amino}benzamide]
